# Results as given in PubChem BioAssay (NCI).
#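 Dose response: 5 concentrations. Exposure: 48 h. Format: 96-well plates. Endpoint: linear interpolation; highest concentration if not reached. GI50: concentration for 50% inhibition of growth. TGI: concentration producing complete growth inhibition.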
# Assays:
# Test in all cases: NCI-60 cell line screen, 48 h
# KM12 colon = tested on: KM12 colon
# MOLT-4 leukemia = tested on: MOLT-4 leukemia
# COLO 205 colon = tested on: COLO 205 colon
# UACC-257 melanoma = tested on: UACC-257 melanoma
# NCI-H460 lung = tested on: NCI-H460 lung
# LOX IMVI melanoma = tested on: LOX IMVI melanoma
# OVCAR-4 ovarian = tested on: OVCAR-4 ovarian
# MDA-MB-231 breast = tested on: MDA-MB-231 breast
# SF-295 CNS = tested on: SF-295 CNS
# ACHN renal = tested on: ACHN renal
Compound,TGI (KM12 colon) [µM],TGI (MOLT-4 leukemia) [µM],TGI (COLO 205 colon) [µM],TGI (UACC-257 melanoma) [µM],TGI (NCI-H460 lung) [µM],TGI (LOX IMVI melanoma) [µM],TGI (OVCAR-4 ovarian) [µM],TGI (MDA-MB-231 breast) [µM],TGI (SF-295 CNS) [µM],TGI (ACHN renal) [µM],GI50 (KM12 colon) [µM],GI50 (MOLT-4 leukemia) [µM],GI50 (COLO 205 colon) [µM],GI50 (UACC-257 melanoma) [µM],GI50 (MDA-MB-231 breast) [µM],GI50 (SF-295 CNS) [µM],GI50 (ACHN renal) [µM],GI50 (LOX IMVI melanoma) [µM],GI50 (OVCAR-4 ovarian) [µM]
O=C(O)c1ccc(NC(c2ccccc2)c2ccc3cccnc3c2O)cc1 (configuration not stated),> 100,> 42.6,> 86.9,46.2,> 48.5,> 57.6,36.6,> 61.4,> 100,> 100,–,–,–,–,–,–,–,–,–
O=C1CC(=O)N(c2ccccc2)N1/C(=C/c1ccccc1)c1ccccc1,66.5,6.54,36.6,59.2,39,3.06,60.5,30,35.6,89.5,–,–,–,–,–,–,–,–,–
COc1ccc(Nc2[nH]c(C(C)=O)c(N)c2C(=S)Nc2ccccc2)cc1,> 100,> 100,48.1,> 100,> 100,> 100,> 100,> 100,> 100,> 100,–,–,–,–,–,–,–,–,–
O=C(NS(=O)(=O)Nc1ccc(Cl)cc1)OCc1ccc(Cl)cc1Cl,57.2,> 100,32.3,> 100,29.9,57.3,76.9,65.7,42.7,> 100,–,–,–,–,–,–,–,–,–
CCC(=O)C(c1ccccc1)c1ccccn1 (configuration not stated),> 100,–,> 100,> 100,> 100,> 100,> 100,> 100,> 100,> 100,–,–,–,–,–,–,–,–,–
C=CC(=O)Nc1cccc(-c2nc(SC)nc(Nc3ccccc3OC)c2C#N)c1,12,83.5,5.33,8.78,–,–,–,4.33,4.46,3.32,3.02,2.62,1.95,2.53,1.83,1.95,1.7,–,–
C/C(=N\NC(=S)NC(C)C)c1nc2ncccc2[nH]1,> 100,> 100,> 100,> 100,> 100,> 100,> 100,> 100,35.6,> 100,–,–,–,–,–,–,–,–,–
Cc1[nH]c(/C=C2\C(=O)Nc3ccc(S(=O)(=O)Cc4c(Cl)cccc4Cl)cc32)c(C)c1C(=O)N1CCC[C@@H]1CN1CCCC1,4.77,–,22.6,–,–,3.22,70.7,3.16,2.57,3.07,0.138,–,9.15,–,1.57,1.19,1.63,1.73,26.1
Nc1n[nH]c(=O)[nH]1,> 100,> 100,> 100,> 100,> 100,> 100,> 100,–,> 100,–,–,–,–,–,–,–,–,–,–
CSC1=Nc2ccccc2N(C)c2c1c(-c1ccccc1)nn2C,> 100,31.7,> 100,> 100,> 100,> 100,> 100,> 100,33.6,> 100,–,–,–,–,–,–,–,–,–
CCn1cc(C(c2ccc(Cl)cc2)n2ccnc2)c2cc(Br)ccc21 (configuration not stated),24.3,> 100,35.1,31.4,–,28.2,22.8,35.8,23.8,25.9,–,–,–,–,–,–,–,–,–
N#Cc1c(NC(=S)NC(=O)c2ccccc2)nc2c(c1-c1ccccc1)CCC2,> 100,> 100,> 100,> 100,> 100,> 100,> 100,> 100,> 100,> 100,–,–,–,–,–,–,–,–,–
CC(C)CC(N)C(=O)OCN1C(=O)C2C3C=CC(C2C1=O)C1C2C(=O)N(COC(=O)C(N)CC(C)C)C(=O)C2C31 (configuration not stated),> 100,> 100,> 100,> 100,> 100,> 58.1,> 100,–,> 100,> 100,–,–,–,–,–,–,–,–,–
Nc1ccccc1Nc1ccccc1C(=O)[O-].Nc1ccccc1Nc1ccccc1C(=O)[O-].[Cu+2],> 100,> 100,> 100,> 100,> 100,–,> 100,–,> 100,> 100,–,–,–,–,–,–,–,–,37.7
O=C(Nc1ccc(I)cc1C(=O)NCCO)c1cccs1,> 100,> 100,> 100,> 100,> 100,> 100,> 100,–,> 100,> 100,–,–,–,–,–,–,–,–,–
Cc1ccc(-c2cc(N)n(-c3nc4c([nH]3)c(=O)n(C)c(=O)n4C)n2)cc1,38.9,> 100,21.8,82.3,18.4,–,> 100,27.8,24.9,10.7,–,–,–,–,–,–,–,–,–
OCC1CCCC(n2cnc3c(=S)nc[nH]c32)O1 (configuration not stated),> 100,–,> 100,> 100,> 100,> 100,> 100,> 100,> 100,> 100,–,–,–,–,–,–,–,–,–
COC1OC(=O)[C@H]2O[N+]([O-])=C(C)[C@@H]12 (some centres not stated),> 100,> 100,> 100,> 100,> 100,> 100,> 100,–,> 100,–,–,–,–,–,–,–,–,–,–
